Test results published in ChEMBL document CHEMBL4033735, “A potent and selective natriuretic peptide receptor-3 blocker 11-mer peptide created by hybridization of musclin and atrial natriuretic peptide” (Bioorg Med Chem Lett, 2017).
Bridge positions count the residues as written; N and C are the ends. Square brackets hold non-standard residues; d marks the D form. Peptide text beside a SMILES is read from it. Cha = N[C@@H](CC1CCCCC1)C(=O)O

What was measured:
[1] = target: T1, Atrial natriuretic peptide receptor 3 (Homo sapiens, UniProt P17342); assay: Displacement of [125I]-human ANP from His-tagged and Fc fragment containing human NPR-3 extracellular domain expressed in FreeStyle 293 cells incubated for 2 hrs by top count method; assay type: cell-based
T1 sequence (P17342 whole entry): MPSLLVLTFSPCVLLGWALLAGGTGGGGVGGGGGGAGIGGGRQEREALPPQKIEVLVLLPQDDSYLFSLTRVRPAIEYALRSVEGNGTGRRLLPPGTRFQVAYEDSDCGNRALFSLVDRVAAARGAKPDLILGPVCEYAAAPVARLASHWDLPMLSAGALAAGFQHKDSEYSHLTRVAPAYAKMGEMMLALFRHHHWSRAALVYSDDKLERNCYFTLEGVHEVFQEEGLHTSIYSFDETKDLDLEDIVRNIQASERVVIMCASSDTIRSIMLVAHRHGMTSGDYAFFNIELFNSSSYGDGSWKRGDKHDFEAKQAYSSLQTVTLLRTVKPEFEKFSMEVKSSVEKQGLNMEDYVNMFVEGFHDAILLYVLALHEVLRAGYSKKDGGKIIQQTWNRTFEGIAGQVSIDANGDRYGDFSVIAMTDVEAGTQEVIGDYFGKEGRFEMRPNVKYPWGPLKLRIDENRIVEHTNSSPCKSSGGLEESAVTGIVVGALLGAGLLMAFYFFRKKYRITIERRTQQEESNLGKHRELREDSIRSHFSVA

[2] = target: T2, Atrial natriuretic peptide receptor 1 (Homo sapiens, UniProt P16066); assay: Displacement of [125I]-human ANP from human NPR-1 incubated for 2 hrs by top count method
T2 sequence (P16066 whole entry): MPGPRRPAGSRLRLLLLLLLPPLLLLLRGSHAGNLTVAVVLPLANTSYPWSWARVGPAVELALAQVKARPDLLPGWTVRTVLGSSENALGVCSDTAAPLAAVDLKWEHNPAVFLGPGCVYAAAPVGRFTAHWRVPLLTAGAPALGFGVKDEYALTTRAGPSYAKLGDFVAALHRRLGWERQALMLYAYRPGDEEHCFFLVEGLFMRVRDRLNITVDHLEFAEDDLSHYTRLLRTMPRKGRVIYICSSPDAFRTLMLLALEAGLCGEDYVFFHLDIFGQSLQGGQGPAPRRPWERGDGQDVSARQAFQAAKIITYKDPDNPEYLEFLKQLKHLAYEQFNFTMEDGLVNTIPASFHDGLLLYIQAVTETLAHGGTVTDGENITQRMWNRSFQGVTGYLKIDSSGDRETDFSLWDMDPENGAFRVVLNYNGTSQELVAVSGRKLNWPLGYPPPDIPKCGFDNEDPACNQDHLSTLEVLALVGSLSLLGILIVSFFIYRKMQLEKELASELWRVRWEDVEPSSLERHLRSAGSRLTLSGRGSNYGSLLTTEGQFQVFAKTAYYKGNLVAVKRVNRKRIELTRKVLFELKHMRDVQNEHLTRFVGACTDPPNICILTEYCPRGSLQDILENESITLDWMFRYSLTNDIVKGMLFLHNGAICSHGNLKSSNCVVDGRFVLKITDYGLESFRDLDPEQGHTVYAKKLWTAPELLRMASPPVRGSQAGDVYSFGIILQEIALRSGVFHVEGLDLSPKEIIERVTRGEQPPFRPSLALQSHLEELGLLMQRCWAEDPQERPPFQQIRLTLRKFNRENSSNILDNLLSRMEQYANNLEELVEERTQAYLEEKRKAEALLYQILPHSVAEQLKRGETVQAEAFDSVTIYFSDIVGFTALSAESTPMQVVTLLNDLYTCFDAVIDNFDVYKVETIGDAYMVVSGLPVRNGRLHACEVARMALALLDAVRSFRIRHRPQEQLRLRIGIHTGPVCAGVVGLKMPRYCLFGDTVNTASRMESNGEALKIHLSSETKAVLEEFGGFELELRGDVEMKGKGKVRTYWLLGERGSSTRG

[3] = Stability in 10% C57BL/6J mouse serum/phosphate-buffered saline assessed as residual parent compound remaining at 1 mM after 30 mins at 37 degC by HPLC method; assay type: ADME, cell-free; details: 10% mouse serum in phosphate-buffered saline, read-out: Stability
[4] = Stability in 10% C57BL/6J mouse serum/phosphate-buffered saline assessed as residual parent compound remaining at 1 mM after 60 mins at 37 degC by HPLC method; assay type: ADME, cell-free; details: 10% mouse serum in phosphate-buffered saline, read-out: Stability

Row | Compound | IC50 [1] | IC50 [2] | remaining at 0.5 h, 1000 µM [3] | remaining at 1 h, 1000 µM [4]
1 | CC[C@H](C)[C@@H]1NC(=O)[C@H](CCCNC(=N)N)NC(=O)[C@H](CC(=O)O)NC(=O)[C@H](CCSC)NC(=O)[C@H](CCCNC(=N)N)NC(=O)CNC(=O)CNC(=O)[C@H](Cc2ccccc2)NC(=O)[C@@H](NC(=O)[C@H](CO)NC(=O)[C@H](CO)NC(=O)[C@H](CCCNC(=N)N)NC(=O)[C@H](CCCNC(=N)N)NC(=O)[C@H](CC(C)C)NC(=O)[C@@H](N)CO)CSSC[C@@H](C(=O)N[C@@H](CC(N)=O)C(=O)N[C@@H](CO)C(=O)N[C@@H](Cc2ccccc2)C(=O)N[C@@H](CCCNC(=N)N)C(=O)N[C@@H](Cc2ccc(O)cc2)C(=O)O)NCC(=O)NC(=O)[C@H](CC(C)C)NC(=O)CNC(=O)[C@H](CO)NC(=O)[C@H](CCC(N)=O)NC(=O)[C@H](C)NC(=O)CNC1=O | 0.058 nM | 0.094 nM |  | 
2 | CC[C@H](C)[C@H](NC(=O)[C@H](CCCNC(=N)N)NC(=O)[C@H](CC(=O)O)NC(=O)[C@@H](NC(=O)[C@H](CCCNC(=N)N)NC(=O)CNC(=O)CNC(=O)[C@H](CC1CCCCC1)NC(=O)[C@H]1CCCN1C(=O)[C@H](CO)NC(=O)[C@H](N)Cc1ccccc1)[C@@H](C)CC)C(=O)NCC(N)=O | 0.13 nM | > 1000 nM | 80% | 63%
3 | CC[C@H](C)[C@H](NC(=O)[C@H](CCCNC(=N)N)NC(=O)[C@H](CC(=O)O)NC(=O)[C@@H](NC(=O)[C@H](CCCNC(=N)N)NC(=O)CNC(=O)CNC(=O)[C@H](CC1CCCCC1)NC(=O)CN)[C@@H](C)CC)C(=O)NCC(N)=O (H-G[Cha]GGRIDRIG-NH2) | 13 nM | > 1000 nM |  | 
4 | CC[C@H](C)[C@H](NC(=O)[C@H](CCCNC(=N)N)NC(=O)[C@H](CC(=O)O)NC(=O)[C@@H](NC(=O)[C@@H]1CCCN1C(=O)CNC(=O)CNC(=O)[C@H](CC1CCCCC1)NC(=O)CNC(=O)[C@H](CO)NC(=O)[C@H](N)Cc1ccccc1)[C@@H](C)CC)C(=O)NCC(N)=O | 0.12 nM | > 1000 nM |  | 
5 | CC[C@H](C)[C@H](NC(=O)[C@H](CCCNC(=N)N)NC(=O)[C@H](CC(=O)O)NC(=O)[C@@H](NC(=O)[C@H](CCCNC(=N)N)NC(=O)CNC(=O)CNC(=O)[C@H](CC1CCCCC1)NC(=O)[C@@H](N)CO)[C@@H](C)CC)C(=O)NCC(N)=O (H-S[Cha]GGRIDRIG-NH2) | 15 nM | > 1000 nM |  | 
6 | CC[C@H](C)[C@H](NC(=O)[C@H](CCCNC(=N)N)NC(=O)[C@H](CC(=O)O)NC(=O)[C@@H](NC(=O)[C@H](CCCNC(=N)N)NC(=O)CNC(=O)CNC(=O)[C@H](CC1CCCCC1)NC(=O)CNC(=O)[C@@H](N)CO)[C@@H](C)CC)C(=O)NCC(N)=O (H-SG[Cha]GGRIDRIG-NH2) | 22 nM | > 1000 nM |  | 
7 | CC[C@H](C)[C@H](NC(=O)[C@H](CCCNC(=N)N)NC(=O)[C@H](CC(=O)O)NC(=O)[C@@H](NC(=O)[C@H](CCCNC(=N)N)NC(=O)CNC(=O)CNC(=O)[C@H](CC1CCCCC1)NC(C)=O)[C@@H](C)CC)C(=O)NCC(N)=O (Ac-[Cha]GGRIDRIG-NH2) | 54 nM | > 1000 nM |  | 
8 | CC[C@H](C)[C@H](NC(=O)[C@H](CCCNC(=N)N)NC(=O)[C@H](CC(=O)O)NC(=O)[C@@H](NC(=O)[C@H](CCCNC(=N)N)NC(=O)CNC(=O)CNC(=O)[C@H](CC1CCCCC1)NC(=O)[C@H](C)N)[C@@H](C)CC)C(=O)NCC(N)=O (H-A[Cha]GGRIDRIG-NH2) | 13 nM | > 1000 nM |  | 
9 | CC[C@H](C)[C@@H]1NC(=O)[C@H](CCCNC(=N)N)NC(=O)[C@H](CC(=O)O)NC(=O)[C@H]([C@@H](C)CC)NC(=O)[C@H](CCCNC(=N)N)NC(=O)CNC(=O)CNC(=O)[C@H](Cc2ccccc2)NC(=O)[C@@H](NC(=O)[C@H](CO)NC(=O)[C@H](CO)NC(=O)[C@@H](N)CCCNC(=N)N)CSSC[C@@H](C(=O)O)NC(=O)[C@H](C)NC(=O)CNC1=O (H-RSSCFGGRIDRIGAC-OH; disulfide 4-15) | 0.51 nM | > 1000 nM | 4% | 2%
10 | CC[C@H](C)[C@H](NC(=O)[C@H](CCCNC(=N)N)NC(=O)[C@H](CC(=O)O)NC(=O)[C@@H](NC(=O)[C@H](CCCNC(=N)N)NC(=O)CNC(=O)[C@@H](C)NC(=O)[C@H](CC1CCCCC1)NC(=O)CNC(=O)[C@H](CO)NC(=O)[C@H](N)Cc1ccccc1)[C@@H](C)CC)C(=O)NCC(N)=O | 0.36 nM | > 1000 nM |  | 
11 | CC[C@H](C)[C@H](NC(=O)[C@H](CCCNC(=N)N)NC(=O)[C@H](CC(=O)O)NC(=O)[C@@H](NC(=O)[C@H](CCCNC(=N)N)NC(=O)CNC(=O)CNC(=O)[C@H](CC1CCCCC1)NC(=O)CNC(=O)[C@H](CO)NC(=O)[C@H](CO)NC(=O)[C@@H](N)CCCNC(=N)N)[C@@H](C)CC)C(=O)NCC(N)=O (H-RSSG[Cha]GGRIDRIG-NH2) | 7.8 nM | > 1000 nM |  | 
12 | CC[C@H](C)[C@H](NC(=O)[C@H](CCCNC(=N)N)NC(=O)[C@H](CC(=O)O)NC(=O)[C@@H](NC(=O)[C@H](CCCNC(=N)N)NC(=O)CNC(=O)CNC(=O)[C@@H](N)CC1CCCCC1)[C@@H](C)CC)C(=O)NCC(N)=O (H-[Cha]GGRIDRIG-NH2) | 11 nM | > 1000 nM |  | 
13 | CC[C@H](C)[C@H](NC(=O)[C@H](CCCNC(=N)N)NC(=O)[C@H](CC(=O)O)NC(=O)[C@@H](NC(=O)[C@H](CCCNC(=N)N)NC(=O)CNC(=O)CNC(=O)[C@H](CC1CCCCC1)NC(=O)[C@@H](N)CS)[C@@H](C)CC)C(=O)NCC(N)=O (H-C[Cha]GGRIDRIG-NH2) | 1.5 nM | 120 nM |  | 
14 | CC[C@H](C)[C@H](NC(=O)[C@H](CCCNC(=N)N)NC(=O)[C@H](CC(=O)O)NC(=O)[C@@H](NC(=O)[C@@H]1CCCN1C(=O)CNC(=O)[C@@H](C)NC(=O)[C@H](CC1CCCCC1)NC(=O)[C@H]1CCCN1C(=O)[C@H](CO)NC(=O)[C@@H](Cc1ccccc1)NC(C)=O)[C@@H](C)CC)C(=O)NCC(N)=O | 0.19 nM | > 1000 nM |  | 
15 | CC[C@H](C)[C@H](NC(=O)[C@H](CCCNC(=N)N)NC(=O)[C@H](CC(=O)O)NC(=O)[C@@H](NC(=O)[C@H](CCCNC(=N)N)NC(=O)CNC(=O)CNC(=O)[C@H](CC1CCCCC1)NC(=O)[C@H](CS)NC(C)=O)[C@@H](C)CC)C(=O)NCC(N)=O (Ac-C[Cha]GGRIDRIG-NH2) | 35 nM | > 1000 nM |  | 
16 | CC[C@H](C)[C@H](NC(=O)[C@H](CCCNC(=N)N)NC(=O)[C@H](CC(=O)O)NC(=O)[C@@H](NC(=O)[C@H](CCCNC(=N)N)NC(=O)CNC(=O)CNC(=O)[C@H](CC1CCCCC1)NC(=O)CNC(=O)[C@H](CO)NC(=O)[C@H](Cc1ccccc1)NC(=O)[C@@H](N)CO)[C@@H](C)CC)C(=O)NCC(N)=O (H-SFSG[Cha]GGRIDRIG-NH2) | 0.52 nM | > 1000 nM |  | 
17 | CC[C@H](C)[C@H](NC(=O)[C@H](CCCNC(=N)N)NC(=O)[C@H](CC(=O)O)NC(=O)[C@@H](NC(=O)[C@H](CCCNC(=N)N)NC(=O)CNC(=O)CNC(=O)[C@H](Cc1ccccc1)NC(=O)[C@H](CS)NC(=O)[C@H](CO)NC(=O)[C@H](CO)NC(=O)[C@@H](N)CCCNC(=N)N)[C@@H](C)CC)C(=O)NCC(=O)N[C@@H](C)C(=O)N[C@@H](CS)C(=O)O (H-RSSCFGGRIDRIGAC-OH) | 0.65 nM |  |  | 
18 | CC[C@H](C)[C@H](NC(=O)[C@H](CCCNC(=N)N)NC(=O)[C@H](CC(=O)O)NC(=O)[C@@H](NC(=O)[C@H](CCCNC(=N)N)NC(=O)CNC(=O)CNC(=O)[C@H](CC1CCCCC1)NC(=O)CNC(=O)[C@H](CO)NC(=O)[C@@H](Cc1ccccc1)NC(C)=O)[C@@H](C)CC)C(=O)NCC(N)=O | 0.93 nM | > 1000 nM |  | 
